Measured values published in EPA's ToxRefDB 2.

Columns and labels:
[1] = test system: primate; details: Sub-acute repeat dose toxicity; Oral; Gavage/Intubation; dose end: 14 day; group: systemic; systemic / clinical chemistry / albumin / albumin + systemic / hematology / fibrinogen / fibrinogen + systemic / hematology / neutrophils / …
[2] = test system: rat; details: Sub-acute repeat dose toxicity, sprague dawley, Oral, Gavage/Intubation, dose end: 14 day, group: systemic
[3] = test system: primate; details: Sub-acute repeat dose toxicity; Oral; Gavage/Intubation; dose end: 7 day; group: systemic; systemic / pathology gross / stomach / erosion + systemic / pathology gross / stomach / foci + systemic / pathology gross / stomach / lesion…
[4] = test system: primate; details: Sub-acute repeat dose toxicity, Oral, Gavage/Intubation, dose end: 14 day, group: systemic
[5] = test system: mouse; details: Sub-acute repeat dose toxicity, Oral, Gavage/Intubation, dose end: 14 day, group: systemic
[6] = test system: rat; details: Subchronic oral toxicity in rodents, sprague dawley, Gavage/Intubation, dose end: 91 day, group: systemic
[7] = test system: dog; details: Subchronic oral toxicity in nonrodent, beagle, Gavage/Intubation, dose end: 91 day, group: systemic, systemic / organ weight / liver / absolute + systemic / clinical chemistry / alanine aminotransferase (alt/sgpt) / alanine aminotransferase…
[8] = test system: mouse; details: Subchronic oral toxicity in rodents, b6c3f1, Feed, dose end: 13 week, group: systemic
[9] = test system: mouse; details: Carcinogenicity, b6c3f1, Oral, Feed, dose end: 103 week, group: systemic
[10] = test system: rat; details: Carcinogenicity; fischer; Oral; Feed; dose end: 103 week; group: systemic; systemic / in life observation / body weight / body weight
[11] = test system: rat; details: Subchronic oral toxicity in rodents, fischer, Feed, dose end: 13 week, group: systemic, systemic / pathology microscopic / kidney / inflammation
[12] = systemic / organ weight / liver / absolute + systemic / in life observation / clinical signs / salivation
[13] = systemic / clinical chemistry / cytochrome p450, nos / cytochrome p450, nos + systemic / in life observation / clinical signs / abnormal …
[14] = systemic / in life observation / food consumption / food consumption + systemic / clinical chemistry / cytochrome p450, nos / cytochrome …
[15] = systemic / clinical chemistry / [other] / [other] + systemic / clinical chemistry / 5' nucleotidase / 5' nucleotidase + systemic / clinical …
[16] = systemic / clinical chemistry / [other] / [other] + systemic / clinical chemistry / alanine aminotransferase (alt/sgpt) / alanine …
[17] = systemic / clinical chemistry / alanine aminotransferase (alt/sgpt) / alanine aminotransferase (alt/sgpt) + systemic / clinical chemistry / …
[18] = systemic / in life observation / body weight / body weight gain + systemic / pathology microscopic / kidney / inflammation + systemic / …
[19] = systemic / in life observation / body weight / body weight
[20] = systemic / in life observation / body weight / body weight + systemic / in life observation / mortality / mortality

For `CC(C)c1cccc(C(C)C)c1NC(=O)[N-]S(=O)(=O)c1cc(C(C)(C)O)co1.[Na+]`, the LEL [1] was 100 mg/kg/day, the LOAEL [1] was over 100 mg/kg/day and the NEL [1] was under 100 mg/kg/day. For the same compound, the NOAEL [1] was at least 100 mg/kg/day, the NEL ([2]; systemic / organ weight / liver / absolute) was 20 mg/kg/day and the LEL [2, 12] was 100 mg/kg/day. For the same compound, the LOAEL [2, 12] was over 300 mg/kg/day, the NOAEL [2, 12] was at least 300 mg/kg/day and the LEL [3] was 300 mg/kg/day. For the same compound, the LOAEL [3] was over 300 mg/kg/day, the NEL [3] was under 300 mg/kg/day and the NOAEL [3] was at least 300 mg/kg/day. The LEL [4, 13] was 300 mg/kg/day, the NEL [4, 13] was 100 mg/kg/day and the LOAEL [4, 14] was over 500 mg/kg/day. For the same compound, the NOAEL [4, 14] was at least 500 mg/kg/day, the LOAEL [5, 15] was over 300 mg/kg/day and the NEL [5, 15] was 75 mg/kg/day. It also gave an NOAEL [5, 15] of at least 300 mg/kg/day and an LEL ([5]; systemic / in life observation / body weight / body weight gain + systemic / organ weight / liver / absolute) of 150 mg/kg/day.
With `CC(=O)NCCN1CCc2cc(NC(=O)c3ccccc3-c3ccc(C(F)(F)F)cc3)ccc2C1` the LOAEL [6, 16] was over 50 mg/kg/day, the NOAEL [6, 16] was at least 50 mg/kg/day and the LEL [6, 17] was 1 mg/kg/day. The NEL [6, 17] was under 1 mg/kg/day, the LEL [7] was 1 mg/kg/day and the LOAEL [7] was over 5 mg/kg/day. For the same compound, the NEL [7] was under 1 mg/kg/day and the NOAEL [7] was at least 5 mg/kg/day.
`CC(C)[C@@H]1CC[C@@H](C)C[C@H]1O` (racemic) [dl-Menthol] showed an LOAEL [8, 18] of over 2250 mg/kg/day, an NEL [8, 18] of 562 mg/kg/day and an NOAEL [8, 18] of at least 2250 mg/kg/day. For the same compound, the LEL ([8]; systemic / pathology microscopic / kidney / inflammation + systemic / pathology microscopic / lymph node / hyperplasia) was 1120 mg/kg/day, the LEL [9, 19] was 300 mg/kg/day and the NEL [9, 19] was under 300 mg/kg/day. For the same compound, the LOAEL [9, 20] was over 600 mg/kg/day, the NOAEL [9, 20] was at least 600 mg/kg/day and the LEL [10] was 375 mg/kg/day. The LOAEL [10] was over 18700 mg/kg/day, the NEL [10] was under 375 mg/kg/day and the NOAEL [10] was at least 18700 mg/kg/day. It also gave an LEL [11] of 750 mg/kg/day, an LOAEL [11] of over 750 mg/kg/day and an NEL [11] of 375 mg/kg/day. For the same compound, the NOAEL [11] was at least 750 mg/kg/day.
